Assay results as given in PMC11193023 (The Journal of Biological Chemistry, 2024).

Target: T1, BwCuyA (Bilophila wadsworthia, UniProt E5Y343)
T1 sequence (E5Y343 1-333): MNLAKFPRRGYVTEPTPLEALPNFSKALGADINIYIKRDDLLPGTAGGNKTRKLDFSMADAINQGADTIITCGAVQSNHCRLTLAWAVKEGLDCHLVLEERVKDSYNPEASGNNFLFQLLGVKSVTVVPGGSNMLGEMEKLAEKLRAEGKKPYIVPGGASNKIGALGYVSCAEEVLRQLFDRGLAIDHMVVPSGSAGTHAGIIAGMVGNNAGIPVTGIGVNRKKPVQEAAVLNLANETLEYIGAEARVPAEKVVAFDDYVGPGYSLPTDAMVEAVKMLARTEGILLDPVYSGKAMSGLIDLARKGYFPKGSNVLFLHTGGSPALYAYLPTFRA
Assay: UV-Vis absorbance spectrum of purified enzyme
Type: binding
Settings: enzyme as isolated; sub-stoichiometric PLP content

## Cc1ncc(COP(=O)(O)O)c(C=O)c1O [PLP]
  UV-Vis absorbance spectrum of purified enzyme: UV-Vis absorbance spectrum of BwCuyA exhibited characteristic features of the PLP cofactor
